Measurements: patent US12077503B2, “Substituted cyclic amides and their use as herbicides” (FMC CORPORATION, priority 2015, dated 2024)

Columns and labels:
Type in all cases: in vivo
[1] = test system: barnyardgrass (Echinochloa crus-galli); experiment: Test G Pre-Emergence Protocol; conditions: Echinochloa crus-galli, pre-emergence, 312 h, evaluated after 13 days; for pest or weed control at 15.625 g/ha: 15.625 g ai/ha; for pest or weed control at 15.625 g/ha / pest or weed control at 250 g/ha: read-out: Barnyardgrass damage rating (100=total damage to plant; 0=no damage to plant); for pest or weed control at 62.5 g/ha: 62.5 g ai/ha, 100=total damage to plant, 0=no damage to plant, read-out: Barnyardgrass damage rating; for pest or weed control at 250 g/ha: 250 g ai/ha
Method in brief: (§1)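 One day after sowing, pots are treated with a spray of test compound formulated in acetone/water 50:50 plus 0.5% Tween 20, giving 15.625, 62.5 or 250 g/ha. Evaluation on a 0–100 damage scale follows 13 days of glasshouse growth.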

corn (Zea mays) [2] = experiment: Test G Pre-Emergence Protocol; conditions: Zea mays, pre-emergence, 312 h, evaluated after 13 days; for plant injury at 15.625 g/ha: 15.625 g ai/ha; for plant injury at 15.625 g/ha / plant injury at 250 g/ha: read-out: Corn damage rating (100=total damage to plant; 0=no damage to plant); for plant injury at 62.5 g/ha: 62.5 g ai/ha, 100=total damage to plant, 0=no damage to plant, read-out: Corn damage rating; for plant injury at 250 g/ha: 250 g ai/ha
Method in brief: as §1

[3] = test system: giant foxtail (Setaria faberi); experiment: Test G Pre-Emergence Protocol; conditions: Setaria faberi, pre-emergence, 312 h, evaluated after 13 days; for pest or weed control at 15.625 g/ha: 15.625 g ai/ha; for pest or weed control at 15.625 g/ha / pest or weed control at 250 g/ha: read-out: Foxtail, Giant damage rating (100=total damage to plant; 0=no damage to plant); for pest or weed control at 62.5 g/ha: 62.5 g ai/ha, 100=total damage to plant, 0=no damage to plant, read-out: Foxtail, Giant damage rating; for pest or weed control at 250 g/ha: 250 g ai/ha
Method in brief: as §1

[4] = test system: ivy-leaved morning glory (Ipomoea hederacea); experiment: Test G Pre-Emergence Protocol; conditions: Ipomoea, pre-emergence, 312 h, evaluated after 13 days; for pest or weed control at 15.625 g/ha: 15.625 g ai/ha; for pest or weed control at 15.625 g/ha / pest or weed control at 250 g/ha: read-out: Morningglory, Ivy-leaved damage rating (100=total damage to plant; 0=no damage to plant); for pest or weed control at 62.5 g/ha: 62.5 g ai/ha, 100=total damage to plant, 0=no damage to plant, read-out: Morningglory, Ivy-leaved damage rating; for pest or weed control at 250 g/ha: 250 g ai/ha
Method in brief: as §1

[5] = test system: redroot pigweed (Amaranthus retroflexus); experiment: Test G Pre-Emergence Protocol; conditions: Amaranthus retroflexus, pre-emergence, 312 h, evaluated after 13 days; for pest or weed control at 15.625 g/ha: 15.625 g ai/ha; for pest or weed control at 15.625 g/ha / pest or weed control at 250 g/ha: read-out: Pigweed, Redroot damage rating (100=total damage to plant; 0=no damage to plant); for pest or weed control at 62.5 g/ha: 62.5 g ai/ha, 100=total damage to plant, 0=no damage to plant, read-out: Pigweed, Redroot damage rating; for pest or weed control at 250 g/ha: 250 g ai/ha
Method in brief: as §1

[6] = test system: velvetleaf (Abutilon theophrasti); experiment: Test G Pre-Emergence Protocol; conditions: Abutilon theophrasti, pre-emergence, 312 h, evaluated after 13 days; for pest or weed control at 15.625 g/ha: 15.625 g ai/ha; for pest or weed control at 15.625 g/ha / pest or weed control at 250 g/ha: read-out: Velvetleaf damage rating (100=total damage to plant; 0=no damage to plant); for pest or weed control at 62.5 g/ha: 62.5 g ai/ha, 100=total damage to plant, 0=no damage to plant, read-out: Velvetleaf damage rating; for pest or weed control at 250 g/ha: 250 g ai/ha
Method in brief: as §1

[7] = test system: barnyardgrass (Echinochloa crus-galli); experiment: Test G Post-Emergence Protocol; conditions: Echinochloa crus-galli, post-emergence, 312 h, read-out: Barnyardgrass damage rating; for pest or weed control at 15.625 g/ha: 15.625 g ai/ha, evaluated after 13 days (100=total damage to plant; 0=no damage to plant); for pest or weed control at 62.5 g/ha: 62.5 g ai/ha; for pest or weed control at 62.5 g/ha / pest or weed control at 250 g/ha: evaluated after 13 days, 100=total damage to plant, 0=no damage to plant; for pest or weed control at 250 g/ha: 250 g ai/ha
Method in brief: (§2)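 Sow in soil; grow 8 d (24/16 °C, 14 h light, 65% humidity); spray 15.625/62.5/250 g/ha in acetone:water 50:50 + 0.5% Tween 20; grow on, water twice daily; score damage 0–100 at 13 d.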

corn (Zea mays) [8] = experiment: Test G Post-Emergence Protocol; conditions: Zea mays, post-emergence, 312 h, read-out: Corn damage rating; for plant injury at 15.625 g/ha: 15.625 g ai/ha, evaluated after 13 days (100=total damage to plant; 0=no damage to plant); for plant injury at 62.5 g/ha: 62.5 g ai/ha; for plant injury at 62.5 g/ha / plant injury at 250 g/ha: evaluated after 13 days, 100=total damage to plant, 0=no damage to plant; for plant injury at 250 g/ha: 250 g ai/ha
Method in brief: as §2

[9] = test system: giant foxtail (Setaria faberi); experiment: Test G Post-Emergence Protocol; conditions: Setaria faberi, post-emergence, 312 h, read-out: Foxtail, Giant damage rating; for pest or weed control at 15.625 g/ha: 15.625 g ai/ha, evaluated after 13 days (100=total damage to plant; 0=no damage to plant); for pest or weed control at 62.5 g/ha: 62.5 g ai/ha; for pest or weed control at 62.5 g/ha / pest or weed control at 250 g/ha: evaluated after 13 days, 100=total damage to plant, 0=no damage to plant; for pest or weed control at 250 g/ha: 250 g ai/ha
Method in brief: as §2

[10] = test system: ivy-leaved morning glory (Ipomoea hederacea); experiment: Test G Post-Emergence Protocol; conditions: Ipomoea, post-emergence, 312 h, read-out: Morningglory, Ivy-leaved damage rating; for pest or weed control at 15.625 g/ha: 15.625 g ai/ha, evaluated after 13 days (100=total damage to plant; 0=no damage to plant); for pest or weed control at 62.5 g/ha: 62.5 g ai/ha; for pest or weed control at 62.5 g/ha / pest or weed control at 250 g/ha: evaluated after 13 days, 100=total damage to plant, 0=no damage to plant; for pest or weed control at 250 g/ha: 250 g ai/ha
Method in brief: as §2

[11] = test system: redroot pigweed (Amaranthus retroflexus); experiment: Test G Post-Emergence Protocol; conditions: Amaranthus retroflexus, post-emergence, 312 h, read-out: Pigweed, Redroot damage rating; for pest or weed control at 15.625 g/ha: 15.625 g ai/ha, evaluated after 13 days (100=total damage to plant; 0=no damage to plant); for pest or weed control at 62.5 g/ha: 62.5 g ai/ha; for pest or weed control at 62.5 g/ha / pest or weed control at 250 g/ha: evaluated after 13 days, 100=total damage to plant, 0=no damage to plant; for pest or weed control at 250 g/ha: 250 g ai/ha
Method in brief: as §2

[12] = test system: velvetleaf (Abutilon theophrasti); experiment: Test G Post-Emergence Protocol; conditions: Abutilon theophrasti, post-emergence, 312 h, read-out: Velvetleaf damage rating; for pest or weed control at 15.625 g/ha: 15.625 g ai/ha, evaluated after 13 days (100=total damage to plant; 0=no damage to plant); for pest or weed control at 62.5 g/ha: 62.5 g ai/ha; for pest or weed control at 62.5 g/ha / pest or weed control at 250 g/ha: evaluated after 13 days, 100=total damage to plant, 0=no damage to plant; for pest or weed control at 250 g/ha: 250 g ai/ha
Method in brief: as §2

| Compound | pest or weed control at 15.625 g/ha [1] [%] | pest or weed control at 62.5 g/ha [1] [%] | pest or weed control at 250 g/ha [1] [%] | plant injury at 15.625 g/ha (corn (Zea mays) [2]) [%] | plant injury at 62.5 g/ha (corn (Zea mays) [2]) [%] | plant injury at 250 g/ha (corn (Zea mays) [2]) [%] | pest or weed control at 15.625 g/ha [3] [%] | pest or weed control at 62.5 g/ha [3] [%] | pest or weed control at 250 g/ha [3] [%] | pest or weed control at 15.625 g/ha [4] [%] | pest or weed control at 62.5 g/ha [4] [%] | pest or weed control at 250 g/ha [4] [%] | pest or weed control at 15.625 g/ha [5] [%] | pest or weed control at 62.5 g/ha [5] [%] | pest or weed control at 250 g/ha [5] [%] | pest or weed control at 15.625 g/ha [6] [%] | pest or weed control at 62.5 g/ha [6] [%] | pest or weed control at 250 g/ha [6] [%] | pest or weed control at 15.625 g/ha [7] [%] | pest or weed control at 62.5 g/ha [7] [%] | also measured |
| --- | --- | --- | --- | --- | --- | --- | --- | --- | --- | --- | --- | --- | --- | --- | --- | --- | --- | --- | --- | --- | --- |
| C=Cc1cc(Oc2ccccc2)cc([C@@H]2CN(C)C(=O)[C@H]2C(=O)Nc2cccc(F)c2F)c1 (racemic) [Compound 1826] | 0 | 70 | 80 | 10 | 10 | 20 | 20 | 80 | 90 | 0 | 0 | 0 | 0 | 0 | 20 | 0 | 0 | 0 | 0 | 10 | pest or weed control at 250 g/ha [7]: 70%; plant injury at 15.625 g/ha (corn (Zea mays) [8]): 0%; plant injury at 62.5 g/ha (corn (Zea mays) [8]): 20%; plant injury at 250 g/ha (corn (Zea mays) [8]): 50%; pest or weed control at 15.625 g/ha [9]: 0%; pest or weed control at 62.5 g/ha [9]: 40%; pest or weed control at 250 g/ha [9]: 80%; pest or weed control at 15.625 g/ha [10]: 0%; pest or weed control at 62.5 g/ha [10]: 20%; pest or weed control at 250 g/ha [10]: 10%; pest or weed control at 15.625 g/ha [11]: 0%; pest or weed control at 62.5 g/ha [11]: 0%; pest or weed control at 250 g/ha [11]: 50%; pest or weed control at 15.625 g/ha [12]: 0%; pest or weed control at 62.5 g/ha [12]: 0%; pest or weed control at 250 g/ha [12]: 10% |
| COCCOc1cccc([C@@H]2CN(C)C(=O)[C@H]2C(=O)Nc2cccc(F)c2C)c1 (racemic) [Compound 1765] | 20 | 50 | 60 | 0 | 0 | 20 | 50 | 70 | 90 | 0 | 0 | 0 | 0 | 0 | 0 | 0 | 0 | 0 | 0 | 30 | pest or weed control at 250 g/ha [7]: 70%; plant injury at 15.625 g/ha (corn (Zea mays) [8]): 0%; plant injury at 62.5 g/ha (corn (Zea mays) [8]): 10%; plant injury at 250 g/ha (corn (Zea mays) [8]): 10%; pest or weed control at 15.625 g/ha [9]: 10%; pest or weed control at 62.5 g/ha [9]: 60%; pest or weed control at 250 g/ha [9]: 70%; pest or weed control at 15.625 g/ha [10]: 0%; pest or weed control at 62.5 g/ha [10]: 0%; pest or weed control at 250 g/ha [10]: 20%; pest or weed control at 15.625 g/ha [11]: 0%; pest or weed control at 62.5 g/ha [11]: 0%; pest or weed control at 250 g/ha [11]: 0%; pest or weed control at 15.625 g/ha [12]: 0%; pest or weed control at 62.5 g/ha [12]: 0%; pest or weed control at 250 g/ha [12]: 0% |
